# Experimental data: US20100267798A1, “PHARMACEUTICAL FORMULATIONS AND USE THEREOF IN THE PREVENTION OF STROKE, DIABETES AND/OR CONGESTIVE HEART FAILURE” (AVENTS PHARMA DEUTSCHLAND GMBH, priority 1999, published 2010)
# Test system: participants at high risk for cardiovascular events
# Assay: Large-scale clinical trial of ramipril versus placebo in reducing cardiovascular events
# Type: in vivo, human
# Protocol: A large-scale clinical trial was designed to examine the effect of the ACE inhibitor ramipril versus placebo in reducing cardiovascular events.
# The study was conducted in 267 centres in 19 countries over a six year period and included 9,541 participants who are at high risk for cardiovascular events due to a history of previous ischaemic heart disease, stroke, peripheral arterial disease or individuals with diabetes.
# The systolic blood pressure at inclusion of the patients was on average 138 mm Hg and thus the patients were normotensive at study start. After one month of therapy with either ramipril or placebo, the systolic blood pressure had decreased by 5.48 mm Hg and 1.59 mm Hg, respectively.
# The primary endpoint of the study was myocardial infarction (MI), stroke and cardiovascular (CV) death (mortality).
smiles,measurement,setting,value
CCOC(=O)[C@H](CCc1ccccc1)N[C@@H](C)C(=O)N1[C@H](C(=O)O)C[C@@H]2CCC[C@@H]21 [ramipril],decrease in systolic blood pressure,"after one month of therapy, normotensive patients, on average 138 mm Hg at inclusion",5.48 mm Hg
same,reduction in the need for revascularisation procedures and diabetic complications,patients taking ramipril versus placebo,between a fourth and a fifth
same,"reduction in the combined endpoint of cardiovascular deaths, heart attacks and strokes","patients taking ramipril, study stopped early",very clear reduction
same,reduction in the number of patients who developed diabetes,ramipril group versus placebo,36%
same,reduction in the number of patients who developed CHF,"ramipril group versus placebo, no signs or symptoms of CHF at study start",21%
same,reduction in the number of patients who developed a stroke,"ramipril group versus placebo, patients normotensive when recruited",32%
